Experimental data published in EP2423181A1, “Multitarget substituted biphenyl diol derivatives” (PROUS INSTITUTE FOR BIOMEDICAL RESEARCH S.A., priority 2010, dated 2012).
Where a name gives a salt, the structure may show the parent alone. Read-outs that look alike come from different tables or passages of the source.

How the values were obtained:
[1] = log D octanol/water distribution coefficient; format: physicochemical
Description: Lipophilicity has been correlated to various drug properties, affecting permeability, absorption, distribution, plasma protein binding, metabolism, elimination, and toxicity. In contrast to honokiol and magnolol, compounds claimed in the invention, and more particularly those wherein the nitrogen atom in the group -O-CH(phenyl)-(CH2)p-NH-R^3 is protonated and the compound further comprises a pharmaceutically acceptable counter-anion present an optimal log Doctanol/water (range 0-3), indicating good aqueous solubility, permeability, oral absorption, and blood-brain barrier penetration. Experimental studies in murine models have confirmed the results.
Absorption, distribution and metabolism studies in vitro with selected examples were performed in order to determine pharmacokinetic parameters such as permeability (or absorption constant), intrinsic clearance (or metabolic clearance), and bioavailability. Physicochemical properties such as water solubility, pKa, log P, and log Doctanol/water, and in vitro experimental studies such as permeability in Caco2 cells, and protein binding in the mouse, stability in murine microsomes, chemical stability at different pH and stability in plasma were evaluated for the pharmacokinetic prediction in mice.

[2] = biological target: T1, EGFR (Homo sapiens, UniProt P00533); assay: EGF receptor tyrosine-protein kinase inhibition (ELISA of Poly[Glu:Tyr-P]); format: biochemical
T1 construct: EGF receptor tyrosin-protein kinase activity was assessed in human A431 cells; endogenous in cells; host or cells: human A431 cells
Protocol: EGF receptor tyrosin-protein kinase activity was assessed in human A431 cells using as a substrate Poly(Glu:Tyr) at 10 µg/ml with a preincubation and incubation times of 15 and 60 min, respectively, at 25°C respectively in 50 mM HEPES pH 7.4, 20 mM MgCl2 and 0.2 mM Na3VO4. An ELISA quantification method of Poly[Glu:Tyr-P] was employed (Cheng, K. and Koland, J.G. J Biol Chem, 1996, 271, 311-318). Table 5. Inhibition of EGFR at 10 µM

[3] = tested on: tumor leukaemia K562; assay: Tumor cell proliferation assay (alamarBlue); format: cell-based; conditions: Homo sapiens
Protocol: (§1) Changes in cell proliferation were detected based on the ability of viable cells to cause alamarBlue® to change its oxidized (non-fluorescent, blue) to a reduced (fluorescent, red) form. The alamarBlue® reaction allows the quantification of cell proliferation and examination of the metabolic activity of viable cells. Test substances were examined for activity on the proliferation of human or murine tumor cell lines at assay concentrations from 0.01 to 100 µM.

[4] = tested on: tumor liver HepG2; assay: Tumor cell proliferation assay (alamarBlue); format: cell-based; conditions: Homo sapiens
Protocol: as §1

[5] = tested on: tumor lung A549; assay: Tumor cell proliferation assay (alamarBlue); format: cell-based; conditions: Homo sapiens
Protocol: as §1

[6] = tested on: tumor prostate LNCaP-FGC; assay: Tumor cell proliferation assay (alamarBlue); format: cell-based; conditions: Homo sapiens
Protocol: as §1

[7] = biological target: T2, COX-1 (Homo sapiens, UniProt P23219); assay: COX-1 inhibition in human platelets (PGE2 enzyme immunoassay); format: biochemical; conditions: read-out: % COX-1 Inhibition
T2 construct: endogenous in cells; host or cells: human platelets
Protocol: The COX-1 inhibitory activity of representative compounds of the invention was determined according to previously reported methods. COX-1 activity was assessed in human platelets using 100 µM arachidonic acid as a substrate and preincubation and incubation times of 15 min at 37 °C in HBSS, 15 mM HEPES pH 7.4 . The quantification method used was enzyme immunoassay determination of PGE2 (Chan, C.C. et al. J Pharmacol Exp Ther, 1999, 290, 551-560; Swinney, D.C. et al. J Biol Chem, 1997, 272, 12393-12398; Warner, T.D. et al. Proc Natl Acad Sci U S A, 1999, 96, 7563-7568; Riendeau, D. et al. Can J Physiol Pharmacol, 1997, 75, 1088-1095). COX-2 inhibitory activity was determined in human recombinant insect Sf21 cells according to references (Warner, T.D. et al., Proc Natl Acad Sci, USA. 1999;96(13):7563-7568; Riendeau, D. et al., Can J Physiol Pharmacol, 1997 ;75(9):1088-1095). Briefly, the COX-2 inhibitory activity was assessed on human recombinant insect Sf21 cells using 0.3 µM arachidonic acid as a substrate and preincubation and incubation times of 15 and 5 min, respectively, at 37 °C in 100 mM Tris-HCl, pH 7.7. The quantification method used was enzyme immunoassay determination of PGE2. Table 11. Inhibition of COX-1 and COX-2 at 10 µM

[8] = biological target: T3, 5-LO (Homo sapiens, UniProt P09917); assay: 5-Lipoxygenase inhibition (LTB4 enzyme immunoassay); format: biochemical
T3 construct: host or cells: Sf9 insect cells
T3 sequence (P09917 1-674): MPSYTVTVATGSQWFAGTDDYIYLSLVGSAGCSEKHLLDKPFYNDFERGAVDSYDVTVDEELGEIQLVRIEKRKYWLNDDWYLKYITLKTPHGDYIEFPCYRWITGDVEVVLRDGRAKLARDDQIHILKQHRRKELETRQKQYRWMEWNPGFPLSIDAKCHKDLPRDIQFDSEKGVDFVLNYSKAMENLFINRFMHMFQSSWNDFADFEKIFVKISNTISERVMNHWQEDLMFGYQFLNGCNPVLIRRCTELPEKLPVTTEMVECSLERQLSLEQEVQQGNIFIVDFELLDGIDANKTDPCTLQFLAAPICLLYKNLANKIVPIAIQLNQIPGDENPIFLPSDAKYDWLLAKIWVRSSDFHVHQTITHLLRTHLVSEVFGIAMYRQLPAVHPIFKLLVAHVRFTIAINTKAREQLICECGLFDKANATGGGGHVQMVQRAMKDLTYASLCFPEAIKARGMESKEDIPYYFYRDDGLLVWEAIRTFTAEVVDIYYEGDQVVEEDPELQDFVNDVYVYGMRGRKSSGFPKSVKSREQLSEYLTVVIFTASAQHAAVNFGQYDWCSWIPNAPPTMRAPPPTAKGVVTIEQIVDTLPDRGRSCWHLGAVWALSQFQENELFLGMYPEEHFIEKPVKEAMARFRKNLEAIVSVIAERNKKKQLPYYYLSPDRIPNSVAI
Protocol: The 5-LO-inhibitory activity of compounds of the invention was determined using previously reported assays. Briefly, lipoxygenase activity was evaluated in human recombinant insect Sf9 cells using 3µM arachidonic acid as a substrate with a preincubation and incubation times of 15 and 5 min respectively at 25°C in a 50 mM Tris-HCl, pH 7.4, 2 mM CaCl2, 1 mM ATP. The quantification method used was enzyme immunoassay determination of LTB4 and the significance criteria were established with a response equal or different of the maximum stimulation or inhibition (Noguchi, M. et al., Eur J Biochem, 1994, 222(2), 285-292; Percival, M.D. et al., Eur J Biochem, 1992, 210(1), 109-117).

[9] = EGFR, at 10 µM, read-out: % Inhibition
[10] = tumor leukaemia K562, read-out: IC50
[11] = tumor liver HepG2, read-out: IC50
[12] = tumor lung A549, read-out: IC50
[13] = tumor prostate LNCaP-FGC, read-out: IC50
[14] = 5-LO, at 10 µM, read-out: % Inhibition

T2 sequence (P23219 24-599): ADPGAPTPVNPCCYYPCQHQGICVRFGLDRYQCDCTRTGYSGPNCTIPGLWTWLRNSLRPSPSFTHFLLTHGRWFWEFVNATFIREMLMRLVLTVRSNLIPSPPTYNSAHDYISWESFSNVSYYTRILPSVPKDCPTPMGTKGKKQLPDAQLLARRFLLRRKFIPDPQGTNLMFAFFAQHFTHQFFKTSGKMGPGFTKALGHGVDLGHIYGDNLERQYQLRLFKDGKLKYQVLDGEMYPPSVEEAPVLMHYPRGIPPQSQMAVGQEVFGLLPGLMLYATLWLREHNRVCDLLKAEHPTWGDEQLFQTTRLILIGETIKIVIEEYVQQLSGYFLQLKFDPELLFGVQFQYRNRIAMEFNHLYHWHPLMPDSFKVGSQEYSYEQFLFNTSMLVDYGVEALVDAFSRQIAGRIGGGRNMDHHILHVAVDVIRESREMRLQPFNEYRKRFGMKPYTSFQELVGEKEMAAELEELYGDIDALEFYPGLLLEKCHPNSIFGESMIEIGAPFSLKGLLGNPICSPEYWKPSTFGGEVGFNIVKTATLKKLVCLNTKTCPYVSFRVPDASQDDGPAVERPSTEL
T1 sequence (P00533 25-1210): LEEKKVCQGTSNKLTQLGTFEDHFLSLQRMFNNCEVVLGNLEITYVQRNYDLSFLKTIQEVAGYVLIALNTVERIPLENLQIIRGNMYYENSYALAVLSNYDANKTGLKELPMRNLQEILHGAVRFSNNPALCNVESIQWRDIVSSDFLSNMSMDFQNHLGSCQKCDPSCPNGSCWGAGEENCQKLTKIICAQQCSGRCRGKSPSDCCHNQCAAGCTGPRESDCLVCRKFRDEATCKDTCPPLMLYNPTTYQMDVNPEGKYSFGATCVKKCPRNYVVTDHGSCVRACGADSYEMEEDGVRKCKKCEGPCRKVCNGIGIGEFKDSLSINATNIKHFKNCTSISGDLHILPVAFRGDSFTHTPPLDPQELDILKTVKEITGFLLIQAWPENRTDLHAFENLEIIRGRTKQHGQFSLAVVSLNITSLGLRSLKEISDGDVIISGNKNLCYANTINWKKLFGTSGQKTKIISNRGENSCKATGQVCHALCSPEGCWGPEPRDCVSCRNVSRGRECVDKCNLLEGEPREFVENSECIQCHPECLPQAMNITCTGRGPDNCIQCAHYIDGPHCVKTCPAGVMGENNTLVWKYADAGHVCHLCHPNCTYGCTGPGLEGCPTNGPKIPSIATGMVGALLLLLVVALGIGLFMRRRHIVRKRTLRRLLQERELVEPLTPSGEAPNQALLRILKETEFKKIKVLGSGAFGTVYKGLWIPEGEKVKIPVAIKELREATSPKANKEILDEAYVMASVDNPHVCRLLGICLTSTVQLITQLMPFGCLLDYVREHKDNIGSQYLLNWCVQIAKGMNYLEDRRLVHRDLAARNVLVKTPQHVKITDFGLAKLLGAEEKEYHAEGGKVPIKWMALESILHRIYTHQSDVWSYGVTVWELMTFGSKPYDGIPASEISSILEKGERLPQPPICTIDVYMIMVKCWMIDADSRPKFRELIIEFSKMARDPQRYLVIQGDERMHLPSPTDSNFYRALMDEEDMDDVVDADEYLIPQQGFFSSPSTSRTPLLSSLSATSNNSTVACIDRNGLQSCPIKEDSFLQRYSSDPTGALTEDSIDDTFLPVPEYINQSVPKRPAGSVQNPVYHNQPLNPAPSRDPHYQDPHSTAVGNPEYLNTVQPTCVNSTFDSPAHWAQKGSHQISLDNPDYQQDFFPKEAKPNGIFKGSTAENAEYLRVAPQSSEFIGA

C=CCc1ccc(O)c(-c2cc(CC=C)ccc2OC(CCNC)c2ccccc2)c1.Cl (stereo not drawn) [Example 1, 5,5'-Diallyl-2'-[3-(methylamino)-1-phenylpropoxy]biphenyl-2-ol hydrochloride]
logDoctanol/water [1]: 1.31 | inhibition at 10 µM [2, 9]: 72% | IC50 [3, 10]: 1900 nM | IC50 [4, 11]: 1400 nM | IC50 [5, 12]: 5 µM | IC50 [6, 13]: 13 µM | inhibition at 10 µM ([7]; at 10 µM, human platelets): 81% | inhibition at 10 µM [8, 14]: 100%

C=CCc1ccc(O)c(-c2ccc(OC(CCNC)c3ccccc3)c(CC=C)c2)c1 (stereo not drawn) [Example 5, 3',5-Diallvl-4'-13-(methylamino)-1-phenylpropoxy]biphenyl-2-ol hydrochloride]
logDoctanol/water [1]: 0.85 | inhibition at 10 µM [2]: 99% | IC50 ([3]; K562): 1400 nM | IC50 ([4]; HepG2): 1000 nM | IC50 ([5]; A549): 1.2 µM | IC50 [6]: 1.5 µM | inhibition at 10 µM [7]: 75% | inhibition at 10 µM [8]: 101%

C=CCc1ccc(O)c(-c2ccc(O)c(CC=C)c2)c1 [Honokiol, reference compound]
logDoctanol/water [1]: 5.25 | inhibition at 10 µM [2, 9]: 7% | IC50 [3, 10]: 16000 nM | IC50 [4, 11]: 12000 nM | IC50 [5, 12]: 12 µM | IC50 [6, 13]: 16 µM | inhibition at 10 µM ([7]; at 10 µM, human platelets): 0% | inhibition at 10 µM [8, 14]: 85%
